The values that follow come from article PMC12030284, “Anti-Breast Cancer Properties and In Vivo Safety Profile of a Bis-Carbazole Derivative” (Pharmaceutics, 2025).

Molecules are shown by their SMILES.

Assay [1] deals with microtubule network in MDA-MB-231 cells. Kind of assay: β-tubulin immunofluorescence. The format is cell-based, human. The following applies: 0.3 µM, 24 h. How it is done:
Cells grown on glass coverslips in full medium were serum-deprived for 24 h and exposed to 1 for 24 h at its IC50 value concentration. Cells were PBS-washed and fixed (cold methanol, 15 min, −20 °C), then primary antibody in blocking solution was added (4 °C/overnight), as described. The mouse anti-Bid (sc-373939) and anti-β-Actin (69879) and the rabbit anti-β Tubulin (9104) were obtained from Santa Cruz Biotechnology and employed at a 1:100 dilution. Coverslips were washed thrice with PBS, then the secondary antibody Alexa Fluor® 568 conjugate goat-anti-mouse and Alexa Fluor® 488 conjugate goat-anti-rabbit (1:500, Thermo Fisher Scientific, Waltham, MA, USA) was added. Nuclei were DAPI (Sigma Aldrich, Mila, Italy) stained (10 min, 0.2 μg/mL) and PBS washed thrice. For mitochondrial staining, cells were pre-incubated with prewarmed (37 °C) MitoTracker® Deep Red FM probe solution (MitoTracker® Mitochondrion-Selective Probes, Invitrogen European Headquarters, Paisley PA4 9RF, UK) for 20 min (fluorescence excitation = 644, fluorescence emission = 665). A fluorescence microscope (Leica DM 6000) and LAS-X software (Leica Application Suite X, 3.5.7.23225) were used to acquire and process all images.

The test system of assay [2] is caspase-9. Kind of assay: Caspase-Glo 9 assay. Format: cell-based, human. The following applies: MDA-MB-231 cells, 0.3 µM, 24 h, versus DMSO-treated cells. How it is done:
Caspases-3/7, -8, and -9 activities were determined using the Caspase-Glo® 3/7, 8, and 9 Assay Systems (Promega Corporation, Madison, WI, USA) as previously described.

For assay [3], the system named is MDA-MB-231 human breast cancer cells. Description: MTT cell viability assay, MDA-MB-231. Format: cell-based. The method, then: The three cell lines adopted in this work (MCF-7, MDA-MB-231 and MCF-10A) were obtained from the American Type Culture Collection (ATCC, Manassas, VA, USA). MCF-7 human breast cancer cells were cultured in Dulbecco’s modified Eagle’s medium/nutrient mixture Ham F-12 (DMEM/F12), added with 10% fetal bovine serum (FBS) and 100 U mL^−1 penicillin/streptomycin. MDA-MB-231 human breast cancer cells were maintained in DMEM/F12 added with 5% FBS, 1% L-glutamine and 100 U mL^−1 penicillin/streptomycin. MCF-10A human mammary epithelial cells were cultured in DMEM/F12 medium added with 5% horse serum (HS, Thermo Fisher Scientific, Milan, Italy), 100 U mL^−1 penicillin/streptomycin, 0.5 mg mL^−1 hydrocortisone, 20 ng mL^−1 human epidermal growth factor (hEGF), 10 mg mL^−1 insulin, and 0.1 mg mL^−1 cholera enterotoxin (Sigma–Aldrich, Milan, Italy). Cells were cultured at 37 °C in a humidified atmosphere (95% air and 5% CO2) and periodically screened for checking contamination.
The 3-(4,5-dimethylthiazol-2-y1)-2,5-diphenyltetrazolium Bromide (MTT, Sigma–Aldrich, Milan, Italy) assay was used for determining cell viability. Cells were seeded on forty-eight well plates and cultured in a complete medium. Next, cells were serum-deprived (24 h). Then, cells were exposed to the tested compounds in phenol-red-free medium added with 1% of serum for 72 h. After medium removal, MTT solution was added to each well (0.5 mg/mL) and incubated at 37 °C (2 h). Cells were lysed (DMSO), and the optical density was measured (570 nm) using a microplate reader. Mean absorbance was reported as a percentage versus control, and IC50 values were calculated using GraphPad Prism 8 software (version 8.4.3., GraphPad Inc., San Diego, CA, USA). The selectivity index was obtained by the ratio of IC50 values calculated for normal and cancer cells. Data represent three independent experiments; standard deviations (SD) were reported.

For the compound `Cc1cc(C=NN=Cc2cc(C)c3[nH]c4ccc(Br)cc4c3c2C)c(C)c2c1[nH]c1ccc(Br)cc12` [Compound 1, N,N’-bis-(6-bromo-1,4-dimethyl-9H-carbazol-3-ylmethylene)-hydrazine], the microtubule network morphology result in assay [1] is “net disorganization of the microtubule network”. The “increase of caspase-9 activity” value in assay [2] stood at 40%. Half-maximal inhibition in assay [3] (Homo sapiens, MDA-MB-231, MTT, 72 h, mean ± SD of three experiments) (IC50) was put at 300 ± 200 nM. The “SI MDA-MB-231” value in assay [3] (ratio of IC50 values for normal (MCF-10A) and cancer cells (MDA-MB-231)) is over 333.3.
